From US8440613B2, “Controlling diseases caused by trichomonadida” (Bayer Intellectual Property GmbH, priority 2008, dated 2013)

Tests used:
Heterakis spumosa [1] = conditions: murine nematode Heterakis spumosa; oral dose; refs (13, 15); cited from earlier work
Heterakis spumosa [2] = assay: Anthelmintic activity against Heterakis spumosa in mice; assay type: in vivo; conditions: Heterakis spumosa (mouse); treated on four consecutive days 35 days post-infection; worms counted day 7 after treatment
Description: Male mice (strain Bor CFW, body weight between 25 and 30 g) are kept in Makrolon cages (3 animals/cage) and fed ad lib with water and SNIFF rat food (10 mm pellets). Mice are infected with Heterakis spumosa by oral administration of 90 embryonated eggs. The eggs had been obtained from female worms which had been isolated from the mices colon 40 days post-infection. The eggs were incubated for a further 3 weeks at 37° C. 35 days post-infection, the mice were treated with the respective dose of PF1022A or emodepside on four consecutive days. PF1022A is suspended in Cremophor EL. On day 7 after the treatment, the mice are sacrificed, the ileum/caecum/colon region is removed, and the worms are counted with the naked eye. The ratio of the number of expelled worms in percent of the total number of worms in untreated, infected control animals is defined as the measure for the anthelmintic activity.

histomonad field strain = assay: Cage experiments; histomonad activity in turkeys; assay type: in vivo; conditions: day -4 to +14; for Average lesions in the appendix / Infection-related lesions in the liver: score 0=no lesions, 4=severe lesions
Description: Histomonad-free male turkeys aged 10 days received nifurtimox or the comparative compound nitarson in the concentration given in “ppm” together with the feed from day −4 (=4 days prior to infection) to day 14. Infection is carried out on day 0, 10 animals are kept per group cage. 1 to 3 such groups are employed per dose.
The infection is carried out with a histomonad field strain which is passaged in the laboratory and stored in liquid nitrogen. On day 0, in each case 5 animals of a cage (with the exception of the noninfected control) are infected intracloacally with 250 000 histomonads in each case 1 ml of Dwyer's medium (=direct infection). After a few days, these infected animals excrete fresh histomonads and thus transmit the pathogen to the remaining 5 animals of the cage (=indirect infection).
To assess the activity, the criteria of McDougald and Hu 2001 (7) are taken into consideration: • the infection-caused mortality • the weight gain from the beginning to the end of the experiment • feed consumption • feed conversion • macroscopic assessment of the infection-related lesions in the appendices (caecum) and in the liver. In this assessment, score 0=no lesions and score 4=severe lesions.

Ascaridia galli = conditions: cited from earlier work
[3] = direct infection no, nitarsone 187.5 ppm in feed, study of Table 1
[4] = direct infection no, nitarsone 187.5 ppm in feed, study of Table 2
[5] = direct infection yes, nitarsone 187.5 ppm in feed, study of Table 1
[6] = direct infection yes, nitarsone 187.5 ppm in feed, study of Table 2
[7] = nitarsone 187.5 ppm in feed, study of Table 1
[8] = nitarsone 187.5 ppm in feed, study of Table 2
[9] = direct infection no, nifurtimox 30 ppm in feed, study of Table 1
[10] = direct infection no, nifurtimox 60 ppm in feed, study of Table 1
[11] = direct infection no, nifurtimox 100 ppm in feed, study of Table 2
[12] = direct infection no, nifurtimox 120 ppm in feed, study of Table 1
[13] = direct infection no, nifurtimox 200 ppm in feed, study of Table 1
[14] = direct infection no, nifurtimox 200 ppm in feed, study of Table 2
[15] = direct infection no, nifurtimox 300 ppm in feed, study of Table 2
[16] = direct infection no, nifurtimox 400 ppm in feed, study of Table 2
[17] = direct infection yes, nifurtimox 30 ppm in feed, study of Table 1
[18] = direct infection yes, nifurtimox 60 ppm in feed, study of Table 1
[19] = direct infection yes, nifurtimox 100 ppm in feed, study of Table 2
[20] = direct infection yes, nifurtimox 120 ppm in feed, study of Table 1
[21] = direct infection yes, nifurtimox 200 ppm in feed, study of Table 1
[22] = direct infection yes, nifurtimox 200 ppm in feed, study of Table 2
[23] = direct infection yes, nifurtimox 300 ppm in feed, study of Table 2
[24] = direct infection yes, nifurtimox 400 ppm in feed, study of Table 2
[25] = nifurtimox 30 ppm in feed, study of Table 1
[26] = nifurtimox 60 ppm in feed, study of Table 1
[27] = nifurtimox 100 ppm in feed, study of Table 2
[28] = nifurtimox 120 ppm in feed, study of Table 1
[29] = nifurtimox 200 ppm in feed, study of Table 1
[30] = nifurtimox 200 ppm in feed, study of Table 2
[31] = nifurtimox 300 ppm in feed, study of Table 2
[32] = nifurtimox 400 ppm in feed, study of Table 2

CC(C)CC1C(=O)OC(Cc2ccc(N3CCOCC3)cc2)C(=O)N(C)C(CC(C)C)C(=O)OC(C)C(=O)N(C)C(CC(C)C)C(=O)OC(Cc2ccc(N3CCOCC3)cc2)C(=O)N(C)C(CC(C)C)C(=O)OC(C)C(=O)N1C [Emodepside, cyclo[(R)-lactoyl-N-methyl-L-leucyl-(R)-3-(p-morpholinophenyl)lactoyl-N-methyl-L-leucyl-(R)-lactoyl-N-methyl-L-leucyl-(R)-3-(p-morpholinophenyl)lactoyl-N-methyl-L-leucyl]]
Dose at which active against Heterakis spumosa (Heterakis spumosa [1]): 1 to 10 mg/kg
Dose with full activity (Heterakis spumosa [2]): 1 to 10 mg/kg

O=[N+]([O-])c1ccc([As](=O)(O)O)cc1 [Nita., nitarsone]
Mean weight gain (g) between day 0 and the time of death (histomonad field strain; [3]): 782 g
Mean weight gain (g) between day 0 and the time of death (histomonad field strain; [4]): 725 g
Mean weight gain (g) between day 0 and the time of death (histomonad field strain; [5]): 541 g
Mean weight gain (g) between day 0 and the time of death (histomonad field strain; [6]): 426 g
Mean feed consumption between day 0 and day 14 (histomonad field strain; [7]): 11.64 kg
Mean feed conversion between day 0 and day 14 (histomonad field strain; [7]): 1.77
Mortality caused by histomoniasis (histomonad field strain; [7]): 1
Mean feed consumption between day 0 and day 14 (histomonad field strain; [8]): 9.82 kg
Mean feed conversion between day 0 and day 14 (histomonad field strain; [8]): 1.79
Mortality caused by histomoniasis (histomonad field strain; [8]): 2
Average lesions in the appendix (histomonad field strain; [3]): 0.00
Infection-related lesions in the liver (histomonad field strain; [3]): 0.00
Average lesions in the appendix (histomonad field strain; [4]): 0.29
Infection-related lesions in the liver (histomonad field strain; [4]): 0.21
Average lesions in the appendix (histomonad field strain; [5]): 2.26
Infection-related lesions in the liver (histomonad field strain; [5]): 0.13
Average lesions in the appendix (histomonad field strain; [6]): 3.07
Infection-related lesions in the liver (histomonad field strain; [6]): 0.79

CC(C)CC1C(=O)OC(Cc2ccccc2)C(=O)N(C)C(CC(C)C)C(=O)OC(C)C(=O)N(C)C(CC(C)C)C(=O)OC(Cc2ccccc2)C(=O)N(C)C(CC(C)C)C(=O)OC(C)C(=O)N1C (stereo not drawn) [PF1022A]
Dose with full activity (Ascaridia galli; Ascaridia galli (chicken)): 2 mg/kg
Dose at which the compound acts against Ascaridia galli (Ascaridia galli; Ascaridia galli in chickens, ref (16)): 2 mg/kg
Dose at which active against Heterakis spumosa (Heterakis spumosa [1]): 50 mg/kg
Dose with full activity (Heterakis spumosa [2]): 50 mg/kg

CC1CS(=O)(=O)CCN1N=Cc1ccc([N+](=O)[O-])o1 (stereo not drawn) [nifurtimox]
Mean weight gain (g) between day 0 and the time of death (histomonad field strain; [9]): 730 g
Mean weight gain (g) between day 0 and the time of death (histomonad field strain; [10]): 838 g
Mean weight gain (g) between day 0 and the time of death (histomonad field strain; [11]): 581 g
Mean weight gain (g) between day 0 and the time of death (histomonad field strain; [12]): 744 g
Mean weight gain (g) between day 0 and the time of death (histomonad field strain; [13]): 744 g
Mean weight gain (g) between day 0 and the time of death (histomonad field strain; [14]): 525 g
Mean weight gain (g) between day 0 and the time of death (histomonad field strain; [15]): 750 g
Mean weight gain (g) between day 0 and the time of death (histomonad field strain; [16]): 832 g
Mean weight gain (g) between day 0 and the time of death (histomonad field strain; [17]): 235 g
Mean weight gain (g) between day 0 and the time of death (histomonad field strain; [18]): 304 g
Mean weight gain (g) between day 0 and the time of death (histomonad field strain; [19]): 135 g
Mean weight gain (g) between day 0 and the time of death (histomonad field strain; [20]): 182 g
Mean weight gain (g) between day 0 and the time of death (histomonad field strain; [21]): 264 g
Mean weight gain (g) between day 0 and the time of death (histomonad field strain; [22]): 270 g
Mean weight gain (g) between day 0 and the time of death (histomonad field strain; [23]): 450 g
Mean weight gain (g) between day 0 and the time of death (histomonad field strain; [24]): 691 g
Mean feed consumption between day 0 and day 14 (histomonad field strain; [25]): 9.00 kg
Mean feed conversion between day 0 and day 14 (histomonad field strain; [25]): 1.88
Mortality caused by histomoniasis (histomonad field strain; [25]): 5
Mean feed consumption between day 0 and day 14 (histomonad field strain; [26]): 9.68 kg
Mean feed conversion between day 0 and day 14 (histomonad field strain; [26]): 1.70
Mortality caused by histomoniasis (histomonad field strain; [26]): 6
Mean feed consumption between day 0 and day 14 (histomonad field strain; [27]): 6.69 kg
Mean feed conversion between day 0 and day 14 (histomonad field strain; [27]): 2.32
Mortality caused by histomoniasis (histomonad field strain; [27]): 13
Mean feed consumption between day 0 and day 14 (histomonad field strain; [28]): 8.70 kg
Mean feed conversion between day 0 and day 14 (histomonad field strain; [28]): 1.88
Mortality caused by histomoniasis (histomonad field strain; [28]): 5
Mean feed consumption between day 0 and day 14 (histomonad field strain; [29]): 9.59 kg
Mean feed conversion between day 0 and day 14 (histomonad field strain; [29]): 1.91
Mortality caused by histomoniasis (histomonad field strain; [29]): 4
Mean feed consumption between day 0 and day 14 (histomonad field strain; [30]): 9.14 kg
Mean feed conversion between day 0 and day 14 (histomonad field strain; [30]): 2.33
Mortality caused by histomoniasis (histomonad field strain; [30]): 4
Mean feed consumption between day 0 and day 14 (histomonad field strain; [31]): 10.40 kg
Mean feed conversion between day 0 and day 14 (histomonad field strain; [31]): 1.83
Mortality caused by histomoniasis (histomonad field strain; [31]): 2
Mean feed consumption between day 0 and day 14 (histomonad field strain; [32]): 11.79 kg
Mean feed conversion between day 0 and day 14 (histomonad field strain; [32]): 1.55
Mortality caused by histomoniasis (histomonad field strain; [32]): 0
Average lesions in the appendix (histomonad field strain; [9]): 0.29
Infection-related lesions in the liver (histomonad field strain; [9]): 0.29
Average lesions in the appendix (histomonad field strain; [10]): 0.00
Infection-related lesions in the liver (histomonad field strain; [10]): 0.00
Average lesions in the appendix (histomonad field strain; [11]): 1.08
Infection-related lesions in the liver (histomonad field strain; [11]): 0.58
Average lesions in the appendix (histomonad field strain; [12]): 0.53
Infection-related lesions in the liver (histomonad field strain; [12]): 0.27
Average lesions in the appendix (histomonad field strain; [13]): 0.47
Infection-related lesions in the liver (histomonad field strain; [13]): 0.13
Average lesions in the appendix (histomonad field strain; [14]): 1.80
Infection-related lesions in the liver (histomonad field strain; [14]): 0.73
Average lesions in the appendix (histomonad field strain; [15]): 0.79
Infection-related lesions in the liver (histomonad field strain; [15]): 0.07
Average lesions in the appendix (histomonad field strain; [16]): 0.27
Infection-related lesions in the liver (histomonad field strain; [16]): 0.00
Average lesions in the appendix (histomonad field strain; [17]): 3.73
Infection-related lesions in the liver (histomonad field strain; [17]): 2.53
Average lesions in the appendix (histomonad field strain; [18]): 3.53
Infection-related lesions in the liver (histomonad field strain; [18]): 2.53
Average lesions in the appendix (histomonad field strain; [19]): 3.79
Infection-related lesions in the liver (histomonad field strain; [19]): 2.00
Average lesions in the appendix (histomonad field strain; [20]): 4.00
Infection-related lesions in the liver (histomonad field strain; [20]): 1.80
Average lesions in the appendix (histomonad field strain; [21]): 3.80
Infection-related lesions in the liver (histomonad field strain; [21]): 1.33
Average lesions in the appendix (histomonad field strain; [22]): 3.67
Infection-related lesions in the liver (histomonad field strain; [22]): 1.33
Average lesions in the appendix (histomonad field strain; [23]): 2.53
Infection-related lesions in the liver (histomonad field strain; [23]): 0.40
Average lesions in the appendix (histomonad field strain; [24]): 1.20
Infection-related lesions in the liver (histomonad field strain; [24]): 0.00
